Reference: ChEMBL document CHEMBL4842364 (J Med Chem, 2021)
Converted amounts (≈) assume the structure as drawn. The source made the active and inactive calls. The calls are words filed in the database; no cut-off is given here.

Assays:
[1] = target: Tyrosine-protein kinase Lck (Homo sapiens) (UniProt P06239); test: Inhibition of LCK (unknown origin) at 1 uM relative to control
[2] = Permeability of the compound across basolateral to apical side in human Caco-2 cells; format: ADME, cell-based; conditions: read-out: permeability
[3] = Intrinsic clearance in mouse microsomes; format: ADME, Microsome
[4] = test system: Epidermal growth factor receptor (Homo sapiens), P00533 [UNDEFINED MUTATION]; test: Inhibition of EGFR d747-749/A750P mutant (unknown origin) at 1 uM relative to control
Epidermal growth factor receptor (Homo sapiens), P00533 [UNDEFINED MUTATION], sequence (P00533 whole entry, looked up, stated change not applied): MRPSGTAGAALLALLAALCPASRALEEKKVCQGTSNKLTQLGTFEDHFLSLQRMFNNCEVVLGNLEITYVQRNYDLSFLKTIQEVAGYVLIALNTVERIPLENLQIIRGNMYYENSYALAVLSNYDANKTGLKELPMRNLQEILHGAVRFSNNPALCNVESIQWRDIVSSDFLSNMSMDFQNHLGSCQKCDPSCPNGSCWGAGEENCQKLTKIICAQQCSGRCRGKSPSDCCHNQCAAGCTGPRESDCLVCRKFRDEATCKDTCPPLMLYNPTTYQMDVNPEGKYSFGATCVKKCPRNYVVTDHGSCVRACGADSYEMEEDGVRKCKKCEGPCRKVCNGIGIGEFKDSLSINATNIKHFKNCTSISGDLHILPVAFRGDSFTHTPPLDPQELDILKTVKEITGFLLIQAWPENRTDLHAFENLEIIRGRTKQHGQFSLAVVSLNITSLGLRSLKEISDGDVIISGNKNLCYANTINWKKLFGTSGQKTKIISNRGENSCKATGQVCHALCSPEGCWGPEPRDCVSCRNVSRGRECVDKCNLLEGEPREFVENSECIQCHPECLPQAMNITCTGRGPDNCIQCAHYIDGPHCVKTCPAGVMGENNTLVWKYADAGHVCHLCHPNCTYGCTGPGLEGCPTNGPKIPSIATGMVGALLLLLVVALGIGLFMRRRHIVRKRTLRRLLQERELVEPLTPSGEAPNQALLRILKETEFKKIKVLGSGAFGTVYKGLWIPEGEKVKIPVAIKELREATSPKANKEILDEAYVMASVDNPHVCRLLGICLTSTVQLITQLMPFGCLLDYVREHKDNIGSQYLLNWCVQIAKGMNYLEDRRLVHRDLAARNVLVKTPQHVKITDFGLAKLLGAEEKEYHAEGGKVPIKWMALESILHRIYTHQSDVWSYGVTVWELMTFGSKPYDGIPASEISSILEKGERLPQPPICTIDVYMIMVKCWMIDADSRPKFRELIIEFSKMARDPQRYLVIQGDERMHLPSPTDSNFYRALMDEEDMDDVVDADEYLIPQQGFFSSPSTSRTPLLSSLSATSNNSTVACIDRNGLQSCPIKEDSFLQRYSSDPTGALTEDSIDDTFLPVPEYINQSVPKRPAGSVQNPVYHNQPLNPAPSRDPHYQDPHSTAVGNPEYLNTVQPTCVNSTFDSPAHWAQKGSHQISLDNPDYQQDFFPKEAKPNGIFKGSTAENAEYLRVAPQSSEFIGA

[5] = target: Serine/threonine-protein kinase PLK1 (Homo sapiens, UniProt P53350); test: Inhibition of PLK1 (unknown origin)
Serine/threonine-protein kinase PLK1, sequence (P53350 whole entry): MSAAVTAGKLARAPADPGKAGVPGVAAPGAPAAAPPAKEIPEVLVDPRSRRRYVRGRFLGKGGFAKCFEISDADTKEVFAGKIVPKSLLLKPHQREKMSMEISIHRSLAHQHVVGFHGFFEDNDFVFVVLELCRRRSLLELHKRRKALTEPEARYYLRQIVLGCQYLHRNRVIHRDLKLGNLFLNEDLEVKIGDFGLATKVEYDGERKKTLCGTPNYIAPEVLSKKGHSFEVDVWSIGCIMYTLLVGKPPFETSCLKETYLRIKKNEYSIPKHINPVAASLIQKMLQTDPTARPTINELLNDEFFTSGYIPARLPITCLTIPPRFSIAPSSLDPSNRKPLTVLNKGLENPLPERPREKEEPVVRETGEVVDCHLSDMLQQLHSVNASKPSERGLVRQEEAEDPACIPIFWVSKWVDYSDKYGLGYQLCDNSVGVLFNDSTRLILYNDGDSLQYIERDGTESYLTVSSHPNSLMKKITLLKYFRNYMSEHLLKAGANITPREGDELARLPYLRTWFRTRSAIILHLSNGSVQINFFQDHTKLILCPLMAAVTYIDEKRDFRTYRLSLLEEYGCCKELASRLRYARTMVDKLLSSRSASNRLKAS

[6] = Half life in Beagle dog at 3 mg/kg, iv measured upto 24 hrs by LC-MS/MS analysis; format: ADME, organism-based, Canis lupus familiaris; conditions: in vivo
[7] = Clearance in Beagle dog at 3 mg/kg, iv measured upto 24 hrs by LC-MS/MS analysis; format: ADME, organism-based, Canis lupus familiaris; conditions: in vivo
[8] = test system: NCI-H23; test: Antiproliferative activity against human NCI-H23 cells assessed as reduction in cell viability after 4 days by CellTiter-Glo assay; conditions: Homo sapiens, NCI-H23, 96 h
[9] = Oral bioavailability in Beagle dog at 10 mg/kg measured upto 24 hrs by LC-MS/MS analysis; format: ADME, organism-based, Canis lupus familiaris; conditions: in vivo
[10] = target: Epidermal growth factor receptor (Homo sapiens, UniProt P00533, 747-749DEL/A750P); test: Inhibition of EGFR d747-749/A750P mutant (unknown origin)
[11] = target: T1, Mitogen-activated protein kinase kinase kinase 3 (Homo sapiens) (UniProt Q99759); test: Inhibition of MAP3K3 (unknown origin) at 1 uM relative to control
T1 sequence (whole entry): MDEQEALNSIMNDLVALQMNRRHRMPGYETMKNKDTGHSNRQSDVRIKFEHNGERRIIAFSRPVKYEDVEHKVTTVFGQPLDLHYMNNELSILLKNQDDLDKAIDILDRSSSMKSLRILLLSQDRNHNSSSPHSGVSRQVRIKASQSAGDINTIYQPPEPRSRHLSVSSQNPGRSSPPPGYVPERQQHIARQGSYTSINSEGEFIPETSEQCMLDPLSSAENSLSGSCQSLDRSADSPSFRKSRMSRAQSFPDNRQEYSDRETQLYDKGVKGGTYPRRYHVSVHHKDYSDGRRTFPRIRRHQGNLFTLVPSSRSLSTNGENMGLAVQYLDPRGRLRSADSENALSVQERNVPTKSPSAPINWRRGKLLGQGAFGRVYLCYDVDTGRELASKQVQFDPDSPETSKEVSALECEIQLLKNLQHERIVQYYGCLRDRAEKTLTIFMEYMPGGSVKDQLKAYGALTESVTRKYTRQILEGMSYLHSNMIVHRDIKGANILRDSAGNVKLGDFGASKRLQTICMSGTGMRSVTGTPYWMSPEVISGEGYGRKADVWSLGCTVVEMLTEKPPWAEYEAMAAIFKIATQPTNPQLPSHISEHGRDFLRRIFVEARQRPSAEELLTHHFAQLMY

[12] = test system: A-427; test: Antiproliferative activity against human A-427 cells assessed as reduction in cell viability after 3 days by CellTiter-Glo assay; format: functional, cell-based; conditions: A-427, 72 h
[13] = AUC(0 to 24 hrs) in rat at 60 mg/kg, po; format: ADME, organism-based; parameters: time < 24 hr, route oral, dose 60 mg/kg; conditions: in vivo
[14] = Thermodynamic solubility of compound; format: physicochemical; conditions: read-out: Therm_solubility
[15] = target: Serine/threonine-protein kinase PLK3 (Homo sapiens, UniProt Q9H4B4); test: Inhibition of PLK3 (unknown origin)
Serine/threonine-protein kinase PLK3, sequence (Q9H4B4 whole entry): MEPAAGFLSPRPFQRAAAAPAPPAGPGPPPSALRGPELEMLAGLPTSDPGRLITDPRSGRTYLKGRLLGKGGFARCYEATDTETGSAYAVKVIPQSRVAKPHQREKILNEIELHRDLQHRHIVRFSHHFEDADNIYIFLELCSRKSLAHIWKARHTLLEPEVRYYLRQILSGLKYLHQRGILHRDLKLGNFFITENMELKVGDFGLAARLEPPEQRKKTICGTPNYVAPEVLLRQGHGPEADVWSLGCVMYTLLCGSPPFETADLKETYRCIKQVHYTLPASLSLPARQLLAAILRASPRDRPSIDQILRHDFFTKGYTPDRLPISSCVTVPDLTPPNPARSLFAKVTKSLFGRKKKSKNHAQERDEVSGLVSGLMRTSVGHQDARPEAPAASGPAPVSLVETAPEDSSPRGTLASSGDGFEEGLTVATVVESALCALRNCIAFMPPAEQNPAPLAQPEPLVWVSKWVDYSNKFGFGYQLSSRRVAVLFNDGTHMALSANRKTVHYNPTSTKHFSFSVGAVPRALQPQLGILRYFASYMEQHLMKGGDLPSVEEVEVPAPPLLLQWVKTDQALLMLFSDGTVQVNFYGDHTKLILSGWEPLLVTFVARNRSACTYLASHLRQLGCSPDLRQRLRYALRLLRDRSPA

[16] = Intrinsic clearance in human hepatocytes; format: ADME, cell-based, Hepatocyte; conditions: read-out: CLH
[17] = Cmax in Beagle dog at 10 mg/kg, po measured upto 24 hrs by LC-MS/MS analysis; format: ADME, organism-based, Canis lupus familiaris; parameters: route oral, dose 10 mg/kg, time <=24; conditions: in vivo
[18] = test system: A-427; test: Antitumor activity against human A-427 cells xenografted in SCID mouse assessed as reduction in tumor growth at 80 mg/kg, po administered once daily for 28 days and measured twice per weeks; format: functional, organism-based; conditions: time 28.0 day
[19] = target: Voltage-gated inwardly rectifying potassium channel KCNH2 (Homo sapiens, UniProt Q12809); test: Inhibition of human ERG
Voltage-gated inwardly rectifying potassium channel KCNH2, sequence (Q12809 whole entry): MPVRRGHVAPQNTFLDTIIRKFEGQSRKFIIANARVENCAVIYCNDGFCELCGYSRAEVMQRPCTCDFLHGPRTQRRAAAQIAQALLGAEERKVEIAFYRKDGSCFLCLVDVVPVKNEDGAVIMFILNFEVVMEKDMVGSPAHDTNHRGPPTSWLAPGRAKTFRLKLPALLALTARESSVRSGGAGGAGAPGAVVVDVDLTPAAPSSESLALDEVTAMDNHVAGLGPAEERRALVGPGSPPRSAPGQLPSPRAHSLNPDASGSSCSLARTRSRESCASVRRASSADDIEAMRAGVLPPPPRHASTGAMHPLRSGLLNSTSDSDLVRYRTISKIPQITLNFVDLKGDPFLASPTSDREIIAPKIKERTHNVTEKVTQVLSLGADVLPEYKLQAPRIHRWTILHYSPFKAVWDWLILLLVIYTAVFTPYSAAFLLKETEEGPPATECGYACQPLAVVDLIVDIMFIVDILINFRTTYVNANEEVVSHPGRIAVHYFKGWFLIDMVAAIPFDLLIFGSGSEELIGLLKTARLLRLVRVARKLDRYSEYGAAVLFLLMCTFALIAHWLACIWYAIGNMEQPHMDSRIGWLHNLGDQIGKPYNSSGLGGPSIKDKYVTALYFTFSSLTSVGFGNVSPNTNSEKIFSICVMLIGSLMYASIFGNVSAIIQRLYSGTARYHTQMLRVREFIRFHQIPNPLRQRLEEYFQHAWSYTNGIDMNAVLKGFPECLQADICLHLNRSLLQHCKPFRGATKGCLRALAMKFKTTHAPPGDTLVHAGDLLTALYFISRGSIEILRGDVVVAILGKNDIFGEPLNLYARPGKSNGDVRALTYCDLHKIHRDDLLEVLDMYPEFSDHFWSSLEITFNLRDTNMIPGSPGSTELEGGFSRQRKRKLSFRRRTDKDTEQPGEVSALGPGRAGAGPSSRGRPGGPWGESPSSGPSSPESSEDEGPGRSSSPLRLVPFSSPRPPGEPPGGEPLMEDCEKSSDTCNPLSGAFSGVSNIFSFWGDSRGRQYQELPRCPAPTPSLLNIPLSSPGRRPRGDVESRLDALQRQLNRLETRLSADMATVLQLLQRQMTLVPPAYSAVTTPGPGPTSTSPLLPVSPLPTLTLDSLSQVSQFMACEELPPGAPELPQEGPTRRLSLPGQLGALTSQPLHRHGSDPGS

[20] = AUC(0 to 24 hrs) in mouse at 60 mg/kg, po; format: ADME, organism-based; parameters: time < 24 hr, route oral, dose 60 mg/kg; conditions: in vivo
[21] = target: Serine/threonine-protein kinase PLK2 (Homo sapiens, UniProt Q9NYY3); test: Inhibition of PLK2 (unknown origin) at 1 uM relative to control
Serine/threonine-protein kinase PLK2, sequence (Q9NYY3 whole entry, looked up): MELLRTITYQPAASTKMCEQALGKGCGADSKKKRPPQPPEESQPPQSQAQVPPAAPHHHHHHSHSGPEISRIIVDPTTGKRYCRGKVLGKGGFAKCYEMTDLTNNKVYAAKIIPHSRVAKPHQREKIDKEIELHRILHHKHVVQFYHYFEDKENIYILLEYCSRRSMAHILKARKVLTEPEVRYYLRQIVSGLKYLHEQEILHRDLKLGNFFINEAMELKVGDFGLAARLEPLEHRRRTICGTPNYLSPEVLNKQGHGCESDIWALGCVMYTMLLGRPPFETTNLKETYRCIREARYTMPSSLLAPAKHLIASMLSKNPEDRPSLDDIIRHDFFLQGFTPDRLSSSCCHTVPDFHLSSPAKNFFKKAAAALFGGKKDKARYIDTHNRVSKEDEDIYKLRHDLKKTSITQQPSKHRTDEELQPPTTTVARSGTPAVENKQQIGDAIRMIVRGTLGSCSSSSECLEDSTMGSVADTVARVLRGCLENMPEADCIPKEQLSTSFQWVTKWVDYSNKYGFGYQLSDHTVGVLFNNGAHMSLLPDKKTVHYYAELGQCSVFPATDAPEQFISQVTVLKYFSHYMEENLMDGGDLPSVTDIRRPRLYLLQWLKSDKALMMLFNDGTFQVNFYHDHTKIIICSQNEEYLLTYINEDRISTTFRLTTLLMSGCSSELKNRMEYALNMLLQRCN

Tyrosine-protein kinase Lck (Homo sapiens), sequence (P06239 2-509 limits assumed): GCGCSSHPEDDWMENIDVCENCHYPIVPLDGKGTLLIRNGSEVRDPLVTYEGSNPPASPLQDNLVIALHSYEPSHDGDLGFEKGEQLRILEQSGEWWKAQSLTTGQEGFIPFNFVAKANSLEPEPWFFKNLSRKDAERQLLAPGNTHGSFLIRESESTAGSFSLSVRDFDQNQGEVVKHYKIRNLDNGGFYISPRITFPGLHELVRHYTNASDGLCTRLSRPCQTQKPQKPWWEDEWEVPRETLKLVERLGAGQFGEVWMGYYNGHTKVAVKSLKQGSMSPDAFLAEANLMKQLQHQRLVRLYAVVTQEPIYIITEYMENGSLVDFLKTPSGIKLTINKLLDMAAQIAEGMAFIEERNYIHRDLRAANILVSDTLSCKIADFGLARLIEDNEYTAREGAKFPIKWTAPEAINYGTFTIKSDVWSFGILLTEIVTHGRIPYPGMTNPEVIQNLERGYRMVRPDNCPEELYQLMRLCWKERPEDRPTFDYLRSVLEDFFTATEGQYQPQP

In the case of C=CCn1c(=O)c2cnc(Nc3ccc(N4CCN(C)CC4)cc3)nc2n1-c1ccc2c(n1)C(O)(CC)CC2 (racemic), the inhibition [1] is reported as 75%, the Papp B→A [2] is reported as 25.5 ×10⁻⁶ cm/s and the CLint scaled [3] is reported as 74 mL/min/kg. It also gave an inhibition [4] of over 90%, an IC50 [5] of 227 nM and a half-life [6] of 1.4 h. The clearance [7] was 46 mL/min/kg, the IC50 [8] was 103 nM and the bioavailability [9] was 142%. It also gave an IC50 [10] of 60 nM, an inhibition [11] of 75% and an IC50 [12] of 75 nM. The AUC(0-t) at 24 h [13] was 27 µM·h, the solubility thermodynamic [14] was 2130 µM (≈ 1120 µg/mL) and the IC50 [15] was 70 nM. The CLint scaled [16] was under 18 mL/min/kg, the Cmax [17] was 2100 nM and the Activity [18] was “Active”. For the same compound, the IC50 [19] was over 30000 nM, the AUC(0-t) at 24 h [20] was 32 µM·h and the inhibition [21] was over 90%.
